Results on one molecule are retold here after patent US20230172901A1, “COMPOSITIONS AND METHODS FOR THE PROPHYLAXIS AND TREATMENT OF FIBROTIC AND INFLAMMATORY CONDITIONS” (GRETALS AUSTRALIA PTY LTD, priority 2020, published 2023).

Entries after “also recorded” stand apart in the source; their conditions may differ.

The subject of series [1] is sheep model of lung disease, bleomycin-induced lung damage. Briefly: Example 1: bleomycin sheep pulmonary model, lung function, inflammation and fibrosis (3 sheep). The format is in vivo. An excerpt:
In animal models, bleomycin is the most widely used agent to characterise pulmonary fibrosis. In the sheep model, intratracheal administrations of two doses of bleomycin is used to induce fibrosis in the lung parenchyma. The overall study protocol is shown at FIG. 1.
For this example, three female merino sheep aged between 9 months and 1 year were utilised. Animals were housed indoors and received anthelminthic to treat for any existing parasitic disease. The sheep were judged to be free from significant pulmonary disease on the basis of clinical examination before the commencement of experiments and on inspection of gross pathology at autopsy. The Animal Experimentation Ethics Committee of the University of Melbourne, which adheres to the Australian Code of Practice for the care and use of laboratory animals for scientific purposes, approved all experimental procedures outlined below.
Bleomycin sulphate was made up at a concentration of 0.6 U bleomycin/mL saline and administered to the left and right caudal lobes at a rate of 3 U per segment to cause injury to the tissue and trigger fibrosis. For the left caudal lobe, 7 mg of pinocembrin in 10% DMSO was administered to test the efficacy of pinocembrin in the treatment or prevention of bleomycin-induced fibrosis. For the right caudal lobe injury was induced by bleomycin, and DMSO alone administered such that any differential effects between the left and right caudal lobes could be attributed to the pinocembrin.
A saline solution was administered to the right medial lobe, as a sham treatment.
Each of the bleomycin, bleomycin/pinocembrin, and saline compositions was administered via the biopsy port of a fibre-optic bronchoscope to the appropriate lung segments as a 5 ml bolus.
Timing of the administration of the various compositions is summarised at FIG. 1, with all three sheep euthanized at week 12.
The sheep were euthanized by an intravenous overdose of barbiturate (Lethabarb, Veterinary Clinic, University of Melbourne, Werribee, Australia) at week 12 as outlined in FIG. 1 for tissue collection and analysis.
Following euthanasia, the lungs were removed and targeted lung segments identified and carefully dissected free from surrounding tissue. Individual segments were then inflated with a 1:1 mixture of OCT and sterile PBS solution. […]
Segmental compliance (Cseg) was assessed using pressure responses to flow in the different segments as indicated FIG. 2 in awake, consciously breathing sheep using a wedged-bronchoscope technique. […]
Segmental lung compliance was calculated. […] Segmental compliance was then calculated from the pressure-flow decay curve generated from this procedure. The process was repeated 3 times for each segment and expressed as an average value for Cseg. […]

The test system of series [2] is sheep model for pulmonary fibrosis, bleomycin-injured lung segments. Briefly: Example 2: bronchoalveolar lavage (BAL) inflammatory cell counts. The format is in vivo. An excerpt: (§1) In this study, a total of 10 sheep were used. Fibrosis in two lung segments of each sheep in a similar manner as performed in Example 1 herein. Using this procedure (as detailed further below) the fibrosis was confined to small, isolated regions in the lungs leaving the remaining 90-95% of the healthy unaffected lungs to undertake normal respiratory function.
All sheep (n=10) in the study were challenged with 2 single doses of bleomycin (3 units) per lung segment, a fortnight apart and the animals were kept for a little over 5 weeks after the final bleomycin dose. Bleomycin is a well-known agent for inducing fibrosis in the lungs. The administration procedure involves inserting a bronchoscope into lung segments in the right and left lung, and then slowly infusing the bleomycin into two segments as shown in FIG. 2 via the bronchoscope biopsy port.
(§2) In the study detailed in Example 1 herein, the dose-rate of pinocembrin was 7 mg pinocembrin per sheep, per week.
(§3) For control purposes the lung segment in the opposite lung was used as a bleomycin-positive, without drug, control, as indicated in FIG. 1. The bioactive molecules in vehicle, were delivered as 5 ml infusions through the biopsy port of the bronchoscope. Note that to nullify any small differences (e.g. physiological or anatomical etc.) between the left and right lungs, the infusions of pinocembrin were randomized between the left and right caudal lung segments. Half the animals (5 sheep) received pinocembrin to the right caudal lung segments, while the other 5 sheep received pinocembrin to the left caudal lung segments. The right medial lung segment was left untreated and used for healthy lung control tissue which was sampled at autopsy (FIG. 2).
For each of the bronchoalveolar (BAL) samplings at the timepoints listed in FIG. 1, the endoscope was manipulated into a specific lung-segment for sampling, usually passing through about 3-4 airway branches. For BAL sampling, 10 ml of sterile saline was infused through the biopsy port of the endoscope into the specific lung-segment and then recovered into a syringe through the same port. This procedure recovered between 3 and 5 ml of BAL fluid. The sampling method collects cells for analyses from the small airway and alveolar lumens of the specific lung-segment where the bronchoscope was navigated to. The BAL cells from each segment were centrifuged onto glass slides and stained for differential cell counting of inflammatory cells with Hem-Quik.

The test system is the same in series [3]. Briefly: Example 2: hydroxyproline assay for collagen content. The format is in vivo. The settings on record: increase induced by bleomycin.
Description: as §1
All sheep (n=10) in the study were challenged with 2 single doses of bleomycin (3 units) per lung segment, a fortnight apart and the animals were kept for a little over 5 weeks after the final bleomycin dose. Bleomycin is a well-known agent for inducing fibrosis in the lungs. The administration procedure involves inserting a bronchoscope into lung segments in the right and left lung, and then slowly infusing the bleomycin into two segments as shown in FIG. 2 via the bronchoscope biopsy port. […]
The hydroxyproline assay was used to extrapolate the collagen content and concentration of each segment. Briefly, frozen lung tissues from each segment were lyophilized to dry weight, hydrolyzed in 6M HCl, and assessed for hydroxyproline content by measuring the absorbance of reconstituted samples (in 0.1M HCl) at 558 nm using a Beckman DU-64 spectrophotometer (Beckman Coulter Inc, Brea, Calif.). Hydroxyproline content was determined from a standard curve of trans-L-hydroxy-L-proline (Sigma-Aldrich).). […]

The test system of another series is sheep. Briefly: Example 2: animal health and safety of pinocembrin administration. The format is in vivo. The procedure: as §2, §3
The sheep were bled at the times indicated in FIG. 1 by sampling 10 ml of blood from the jugular vein into a tube containing heparin. The blood was processed for blood cell count analyses.
Health checks were routinely performed throughout the treatment periods and throughout the trial until euthanasia.

The conditions of series [4]: soxhlet extraction of dry leaves with n-hexane or methanol; cited from earlier work.
[5] abbreviates: 7 mg pinocembrin in 10% DMSO, 4 weekly doses, left vs right caudal segment.
Where [6] appears, read: week 12, vs bleomycin alone without pinocembrin, 4 weekly infusions of 7 mg, n=10 sheep.
The mark [7] stands for this setting: pinocembrin treatment period, 10 sheep.
[8] abbreviates: throughout the pinocembrin treatment period, 10 sheep.

As for `O=C1CC(c2ccccc2)Oc2cc(O)cc(O)c21` (stereo not shown) [pinocembrin, 5,7-Dihydroxy-2-Phenyl-2,3-Dihydro-4H-Chromen-4-One], the “beneficial effect of pinocembrin (significance, number of sheep)” value in series [1] was “statistically significant and noted in all three sheep”. Moreover, in series [1] (7 mg pinocembrin in 10% DMSO, 4 weekly doses, bleomycin-injured left caudal segment vs right caudal segment (bleomycin + DMSO)), the lung function entry is “improvement”. Moreover, in series [1] (setting [5]), the fibrosis result was “decrease” and the inflammation result is “decrease”. In addition, the “sheep with lower inflammatory cell numbers in BAL fluid” value in series [2] (individual sheep data, vs bleomycin without pinocembrin, 10 sheep) is “Nine out of ten”. Also, the “neutrophil, % of total BAL cells” value in series [2] (pinocembrin-treated bleomycin-injured lung segments (7.4% in bleomycin without drug)) is 3.7%. For the same molecule, in series [2] (setting [6]), the “numbers of inflammatory cells (neutrophils, eosinophils and lymphocytes) in BAL fluid” value is reported as “significantly lower; also recorded: significantly reduces”; the “numbers of neutrophils in BAL fluid” value was “significantly lower”. In series [3] (4 weekly treatments of 7 mg, 10 sheep (FIG. 16A)), the “collagen content (hydroxyproline assay)” value was “did not reduce; also recorded: not associated with a significant decrease; also recorded: did not address the increase”. Besides, the “collagen content (hydroxyproline assay)” value in series [3] (all 13 sheep of Examples 1 and 2 (FIG. 16B)) is “does not reduce”. Also, the “untoward health effects (clinical assessment criteria)” value in the series with sheep (all ten sheep undergoing the trial) is given as “no untoward health effects”. Besides, the “differential counts of blood leukocytes” value in the series on sheep (both sampling time points, 10 sheep) is “within normal ranges”. For the same molecule, the “additional pathology or lung damage in pinocembrin exposed segments” value in the series with sheep (lung segment exposed to pinocembrin, post-mortem) is recorded as “no obvious signs of additional pathology or lung damage”. Besides, in the series on sheep (setting [7]), the adverse health events result was “no otherwise adverse health events” and the weight gain result is given as “expected normal range”. In the series with sheep (setting [8]), the core temperature readings entry was “within the normal range”; the “heart, and respiratory rates” value is on record as “within normal ranges”. Also, in the series on sheep (week 8 to week 12, 7 mg per sheep per week into one lung segment, 10 sheep), the “animal health during treatment period” value is “remained healthy”. In series [4], the “temperature survived for extended periods” value was “up to 68 °C”.
